Assay results reported in patent publication US11629141B2, “Proteasome inhibitors and uses thereof” (CORNELL UNIVERSITY, priority 2015, dated 2023).
pIC50: −log10 of the molar value.

Columns and labels:
[1] = molecular target: T1, human immunoproteasome β5i (Homo sapiens, UniProt P28062); assay: IC50 against chymotryptic β5i activity of human immunoproteasome (96-well plate, Ac-ANW-AMC); format: biochemical; details: for pIC50: β5i, substrate Ac-ANW-AMC, read-out: IC50 Hu i-20S (Ac-ANW-AMC)
T1 construct: purchased Boston Biochem Inc
Method: A 96-well-plate assays were used to determine the IC50s against the chymotryptic β5 activities of the proteasomes. Both human constitutive proteasome and immunoproteasome were purchased from Boston Biochem Inc. 1 μL of 100× compound in DMSO at designated concentrations were spotted at the bottom of the wells. DMSO was used as a control. […] The hydrolysis of the substrate over time in each well was monitored at excitation 360 nm, emission 460 nm for 90 minutes. IC50s were estimated by fitting the velocities of hydrolysis against compound concentrations using PRISM. […] SDS (0.02%) was used as activator, and 0.01% BSA was used in the reaction buffer.

[2] = molecular target: T2, human constitutive proteasome β5c (Homo sapiens, UniProt P28074); assay: IC50 against chymotryptic β5c activity of human constitutive proteasome (96-well plate, Suc-LLVY-AMC); format: biochemical; details: for pIC50: β5c, substrate Suc-LLVY-AMC, read-out: IC50 Hu c-20S (Suc-LLVY-AMC)
T2 construct: purchased Boston Biochem Inc
Method: A 96-well-plate assays were used to determine the IC50s against the chymotryptic β5 activities of the proteasomes. Both human constitutive proteasome and immunoproteasome were purchased from Boston Biochem Inc. 1 μL of 100× compound in DMSO at designated concentrations were spotted at the bottom of the wells. DMSO was used as a control. Final concentrations of the inhibitors were from 100 μM to 0.098 μM. The hydrolysis of the substrate over time in each well was monitored at excitation 360 nm, emission 460 nm for 90 minutes. IC50s were estimated by fitting the velocities of hydrolysis against compound concentrations using PRISM. […] Suc-LLVY-AMC was used for βc at final concentration of 25 μM, and Ac-ANW-AMC for b5i at final concentration of 15 μM. SDS (0.02%) was used as activator, and 0.01% BSA was used in the reaction buffer.
The foregoing features of these AsnEDA encouraged a further round of SAR studies (Table 5) based on varying the carboxylic acid at the ethylenediamine, the N-cap at the Asn, and the side chain of the Asn, based on PKS21004. All compounds listed in the Table 5 were synthesized as described in Examples 6-77. All final compounds were confirmed by NMR and HRMS. IC50s of all compounds against β5i and β5c (Table 5), β1i, β2i, β1c and β2c were determined following a reported method (Lin et al., “N,C-Capped Dipeptides With Selectivity for Mycobacterial Proteasome Over Human Proteasomes: Role of S3 and S1Binding Pockets,” J Am Chem Soc. 135:9968-9971 (2013), which is hereby incorporated by reference in its entirety). […] The [1,1′-biphenyl]-3-carboxamide of PKS21004 was then modified with the following substituents: 4′-fluoro (PKS21026), 4′-cyano (PKS21028), 4-fluoro (PKS21196), 4,3′-difluoro (PKS21195) and 4,2′-difluoro (PKS21187).

[3] = system: Plasmodium falciparum; assay: Growth of Plasmodium falciparum in red blood cells (SYBR Green, 72 hours); format: cell-based; details: Erythrocyte, P.f. 3D7, growth in red blood cells, read-out: EC50 (nM) (P.f.)
Method: Continuous in vitro cultures of Plasmodium falciparum: were maintained in human red blood cells (RBC) diluted to a hematocrit of 5% in RPMI 1640 medium with HEPES and Hypoxanthine and completed with 0.5% Albumax II (Invitrogen), 0.25% sodium bicarbonate, and 0.1 mg/ml gentamicin. Parasites were incubated at 37° C. in a gas mixture of 5% oxygen, 5% carbon dioxide, and 90% nitrogen.
Parasite sensitivity to novel compounds were determined using a SYBR Green (Invitrogen S1046) drug assay protocol. P. falciparum of various clinic stains were cultured with compounds at concentrations in a series of dilution in a clear, sterile 96-well plate for 72 hours. Subsequently, 150 μl of the cultures were transferred to a black 96-well plate and placed in the freezer for red blood cell lysis. The plates were thawed and suspended in a Sybr Green Lysis buffer. GraphPad Prism was used to analyze the raw data collected […]. Drug concentrations were converted to logarithms, normalized, and then curve fitted by non-linear regression to obtain EC50 values.
Plasmodium falciparum: parasites were cultured in human red cells. Drug assays were run in 96 well plates at a total volume of 200 μl. Assays were set up at a starting parasitemia (percent of infected red cells) of 0.5%. Test compounds were plated at concentrations of 2778 nM to 0.4 nM. The test plates were grown under standard low oxygen conditions at 37° C. for 72 hours. At that time the plates were prepared for growth determination, first the plates were frozen and thawed to lyse the red blood cells, 150 μl of the lysed thawed culture was transferred to a black 96 well plate, and mixed in a lysis buffer with SYBR green DNA dye. The fluorescence of each well was recorded in a plate reader with excitation wavelength 490 nm and emission wavelength 530 nm and normalized relative to DMSO control. The EC50s were determined using Prism software.

| pIC50 [1] | pIC50 [2] | EC50 [3] | inhibitory activity against β5i (in words) [1] | selectivity for β5i over β5c [1] | improved potency against β5i ([1]; relative to PKS3080) | inhibitory activity against β5c (in words) [2] | SMILES |
| --- | --- | --- | --- | --- | --- | --- | --- |
| 6.20 | 5.51 | – | – | – | – | – | CC(C)(C)NC(=O)C[C@H](N)C(=O)NCCNC(=O)c1cc(-c2ccccc2F)ccc1F [PKS21284] |
| 6.56 | 5.46 | 30 nM | – | – | – | – | CC(C)(C)NC(=O)C[C@H](NC(=O)CCc1ccccc1)C(=O)NCCCNC(=O)c1cccc(-c2ccccc2)c1 [PKS21019] |
| 7.92 | 6.38 | – | – | – | – | – | Cc1ccc(S(=O)(=O)N[C@@H](CC(=O)NC(C)(C)C)C(=O)NCCNC(=O)c2cc(-c3cccc(F)c3)ccc2F)cc1 [PKS21228] |
| 7.82 | 6.02 | – | – | – | – | – | CC(C)(C)NC(=O)C[C@H](NS(=O)(=O)C1CC1)C(=O)NCCNC(=O)c1cc(-c2ccccc2F)ccc1F [PKS21293] |
| 6.95 | 5.44 | – | modestly potent | 36 fold | – | – | CC(C)(C)NC(=O)C[C@H](NC(=O)OC(C)(C)C)C(=O)NCCNC(=O)c1cc(-c2ccccc2F)ccc1F [PKS21277] |
| 7.80 | 6.44 | – | – | ~20 fold | – | – | CC(C)(C)NC(=O)C[C@H](NC(=O)CCc1ccccc1)C(=O)NCCNC(=O)c1cc(-c2ccccc2F)ccc1F [PKS21187] |
| 6.55 | 5.44 | 320 nM | – | 26 fold | 3 fold | – | CC(C)(C)NC(=O)C[C@H](NC(=O)CCc1ccccc1)C(=O)NCCNC(=O)c1ccc2ccccc2c1 [PKS21025] |
| 6.57 | 4.93 | – | – | – | – | – | Cc1cc(C(=O)N[C@@H](CC(=O)NC(C)(C)C)C(=O)NCCNC(=O)c2cc(-c3cccc(F)c3)ccc2F)no1 [PKS21225] |
| 4.62 | < 4.00 | – | abolished the inhibitory activities | – | – | abolished the inhibitory activities | CC(C)(C)OC(=O)NCC(=O)NCCNC(=O)c1cc(-c2ccccc2F)ccc1F [PKS21276] |
| < 4.00 | < 4.00 | – | eliminated inhibitory activity | – | – | eliminated inhibitory activity | Cc1ccc(S(=O)(=O)N[C@@H](C)C(=O)NCCNC(=O)c2cc(-c3ccccc3F)ccc2F)cc1 [PKS21290] |
| 6.21 | 4.88 | – | – | – | – | – | CC(=O)N[C@@H](CC(=O)NC(C)(C)C)C(=O)NCCNC(=O)c1cc(-c2ccccc2F)ccc1F [PKS21294] |
| 5.63 | 4.84 | 364 nM | – | – | – | – | CC(CNC(=O)c1cccc(-c2ccccc2)c1)NC(=O)[C@H](CC(=O)NC(C)(C)C)NC(=O)CCc1ccccc1 (mixture of isomers) [PKS21018] |
| 4.39 | 4.22 | – | eliminated inhibitory activity | – | – | eliminated inhibitory activity | Cc1ccc(S(=O)(=O)NCC(=O)NCCNC(=O)c2cc(-c3ccccc3F)ccc2F)cc1 [PKS21289] |
| 5.20 | 4.41 | – | – | – | – | – | Cc1cc(C(=O)N[C@@H](CC(=O)NC(C)(C)C)C(=O)NCCNC(=O)c2ccccc2F)no1 [PKS21251] |
| 6.90 | 5.56 | – | – | – | – | – | CC(C)(C)NC(=O)C[C@H](NC(=O)CCc1ccccc1)C(=O)NCCNC(=O)c1cc(-c2ccccc2)ccn1 [PKS21186] |
| 4.48 | < 4.00 | – | abolished the inhibitory activities | – | – | abolished the inhibitory activities | C[C@H](NC(=O)OC(C)(C)C)C(=O)NCCNC(=O)c1cc(-c2ccccc2F)ccc1F [PKS21280] |

| pIC50 [1] | pIC50 [2] | EC50 [3] | inhibitory activity against β5i (in words) [1] | selectivity for β5i over β5c [1] | improved potency against β5i ([1]; relative to PKS3080) | inhibitory activity against β5c (in words) [2] | SMILES |
| --- | --- | --- | --- | --- | --- | --- | --- |
| 5.11 | 4.24 | – | – | – | – | – | CC(C)(C)NC(=O)C[C@H](NC(=O)CCc1ccc(F)cc1)C(=O)NCCNC(=O)c1ccccn1 [PKS21254] |
| 7.16 | 5.89 | – | – | – | – | – | Cc1ccc(S(=O)(=O)N[C@@H](CC(=O)NC(C)(C)C)C(=O)NCCNC(=O)c2cccc(-c3cc[nH]n3)c2)cc1 [PKS21282] |
| 5.38 | < 4.00 | – | eliminated inhibitory activity | – | – | eliminated inhibitory activity | Cc1ccc(S(=O)(=O)N[C@@H](CC(N)=O)C(=O)NCCNC(=O)c2cc(-c3ccccc3F)ccc2F)cc1 [PKS21288] |
| 7.36 | 6.09 | – | – | – | – | – | CC(C)(C)NC(=O)C[C@H](NC(=O)CCc1ccccc1)C(=O)NCCNC(=O)c1cc(-c2ccccc2)ccc1F [PKS21196] |
| 6.89 | 5.62 | – | – | – | – | – | Cc1ccc(S(=O)(=O)N[C@@H](CC(=O)NC(C)(C)C)C(=O)NCCNC(=O)c2cccc(N3CCNC3=O)c2)cc1 [PKS21295] |
| 7.23 | 5.71 | – | – | – | – | – | CC(C)(C)NC(=O)C[C@H](NC(=O)CCc1ccccc1)C(=O)NCCNC(=O)c1cc(-c2cccc(F)c2)ccc1F [PKS21195] |
| < 4.00 | < 4.00 | – | abolished the inhibitory activities | – | – | abolished the inhibitory activities | CC(C)(C)OC(=O)N[C@@H](CC(N)=O)C(=O)NCCNC(=O)c1cc(-c2ccccc2F)ccc1F [PKS21281] |
| 6.41 | 7.17 | – | – | – | – | – | CC(C)(C)NC(=O)CC[C@H](NC(=O)CCc1ccccc1)C(=O)NCCNC(=O)c1cccc(-c2ccccc2)c1 [PKS21030] |
| 7.43 | 6.94 | – | – | – | – | – | O=C(CCc1ccc(F)cc1)N[C@@H](CC(=O)NC1(C(F)(F)F)CC1)C(=O)NCCNC(=O)c1cc(-c2ccccc2F)ccc1F [PKS21279] |
| 7.10 | 6.78 | – | – | – | – | – | O=C(CCc1ccc(F)cc1)N[C@@H](CC(=O)NC1(C(F)(F)F)CC1)C(=O)NCCNC(=O)c1cccc(-c2ccccc2)c1 [PKS21278] |
| 6.13 | 5.44 | – | – | – | – | – | CC(C)(C)NC(=O)C[C@H](NC(=O)CCc1ccc(F)cc1)C(=O)NCCNC(=O)c1ccccc1F [PKS21255] |
| 7.57 | 5.98 | – | – | – | – | – | Cc1cc(C(=O)N[C@@H](CC(=O)NC(C)(C)C)C(=O)NCCNC(=O)c2cc(-c3ccccc3F)ccc2F)no1 [PKS21208] |
| 6.80 | 5.65 | – | – | – | – | – | CC(C)(C)NC(=O)C[C@H](NC(=O)CCc1ccc(F)cc1)C(=O)NCCNC(=O)c1ccc(F)c2ccccc12 [PKS21259] |
| 5.69 | 5.14 | – | – | – | – | – | CC(C)(C)NC(=O)C[C@H](NC(=O)CCc1ccccc1)C(=O)NCCNC(=O)c1cccc(-c2ccc(C#N)cc2)c1 [PKS21028] |
| 4.18 | < 4.00 | – | – | – | – | – | Cc1cc(C(=O)N[C@@H](CC(=O)NC(C)(C)C)C(=O)NCCNC(=O)c2ccccn2)no1 [PKS21250] |
| 5.62 | 4.64 | – | – | – | – | – | CC(C)(C)NC(=O)C[C@H](NC(=O)CCc1ccc(F)cc1)C(=O)NCCNC(=O)c1cccc2cccnc12 [PKS21258] |

| SMILES | pIC50 [1] | pIC50 [2] | EC50 [3] | inhibitory activity against β5i (in words) [1] | selectivity for β5i over β5c [1] | improved potency against β5i ([1]; relative to PKS3080) | inhibitory activity against β5c (in words) [2] |
| --- | --- | --- | --- | --- | --- | --- | --- |
| Cc1ccc(S(=O)(=O)N[C@@H](CC(=O)NC(C)(C)C)C(=O)NCCNC(=O)c2ccccc2F)cc1 [PKS21291] | 7.26 | 6.28 | 11 nM | – | – | – | – |
| Cc1cc(C(=O)N[C@@H](CC(=O)NC(C)(C)C)C(=O)NCCNC(=O)c2cccc(-n3cccn3)c2)no1 [TDI4258] | – | – | 29 nM | – | – | – | – |
